The subject of test [1] is PR/8-R292K mutant (H1N1, recombinant oseltamivir-resistant). It counts as cell-based, influenza A virus (H1N1).
For test [2], the system named is PR/8-I38T mutant (H1N1, recombinant baloxavir-resistant). Type of test: cell-based, influenza A virus (H1N1).

Usually EC50 stands for the concentration that produces a half-maximal response. For `CCSc1ncc(-c2cc(-c3c(C)nn(C)c3C)nc(N)c2C#N)cn1` [21A5], the EC50 stood at 9.27 ± 0.55 µM in test [1] and 14.1 ± 0.47 µM in test [2].

On to `Cc1cccnc1CCNc1nc2nonc2nc1NCc1cccs1` [21B1], for which the concentration for a half-maximal effect (EC50) in test [1] is 14.6 ± 1.44 µM; in test [2] it was 37 ± 0.67 µM.

Regarding `CCC(CC)O[C@@H]1C=C(C(=O)O)C[C@H](N)[C@H]1NC(C)=O` [OC, Oseltamivir carboxylate, reference compound], the EC50 in test [1] was above 100 µM.

In the case of `C=CCn1cc(CNCc2noc(-c3ccc4c(c3)OCO4)n2)c(C)n1` [11D4], the concentration giving a half-maximal response (EC50) was 21.5 ± 5.49 µM in test [1] and 32.4 ± 1.52 µM in test [2].

`C=CCn1cc(-c2cc(-c3ccc(C(=O)O)cc3)[nH]c(=N)c2C#N)cn1` [12C5]: the EC50 in test [1] is 28.6 ± 0.99 µM; in test [2], 35.4 ± 1.02 µM.

On to `O=C(O)[C@H]1C2CCC(CC2)[C@@H]1Nc1nc(-c2c[nH]c3ncc(F)cc23)ncc1F` [VX-787, reference compound], for which the EC50 stood at 4.14 ± 0.66 µM in test [1] and 2.34 ± 0.1 µM in test [2].
